Assay results as given in patent US20100179225A1, “POI Prevention” (CYTOKINE PHARMASCIENCES, INC., priority 2008, published 2010).

Experiments:
JNK/SAPK = JNK/SAPK phosphorylation in ME lysates after intestinal manipulation (immunoblot); format: in vivo, C57BL/6J mice; conditions: 5 mg/kg i.v. preoperative; after IM
Description: (§1) The small bowel of the animals was subjected to a standardized, surgical manipulation (IM) as described previously (Kalff J C, Schraut W H, Simmons R L et al. Surgical manipulation of the gut elicits an intestinal muscularis inflammatory response resulting in postsurgical ileus. Ann Surg 1998; 228:652-663; Wehner S, Schwarz N T, Hundsdoerfer R et al. Induction of IL-6 within the rodent intestinal muscularis after intestinal surgical stress. Surgery 2005; 137:436-446). In brief, after anesthesia a midline abdominal incision was made into the peritoneal cavity. The entire small bowel was eventuated and manipulated with standardized moderate intensity using two moist cotton applicators as described previously. After IM, the laparotomy was closed by one layer of continuous suture, except when probe sampling was conducted within 20 minutes after surgery. […]
p38-MAPK and JNK/SAPK phosphorylation were analyzed in C57BL/6J mice 15, 30 and 60 minutes after IM and in unoperated controls. […] Finally, the sonicated samples were centrifuged at 13.000×g for 10 minutes, and total protein concentration was determined with Pierce BCA protein assay (Perbio, Bonn, Germany). […]
After PAGE, proteins were blotted on Immobilon-P […] PVDF membranes. […] Chemiluminscence signals were detected with a LAS 4000 system (Fujifilm, Duesseldorf, Germany).

MIP-1α mRNA = assay: Proinflammatory gene expression in ME, real-time RT-PCR: MIP-1α; format: in vivo, mice; conditions: 5 mg/kg i.v. preoperative, vs placebo IM
Description: as §1, with “cavity.” for “cavity. The entire small bowel was eventuated and manipulated with standardized moderate intensity using two moist cotton applicators as described previously. After IM, the laparotomy was closed by one layer of continuous suture, except when probe sampling was conducted within 20 minutes after surgery.”
(§2) Proinflammatory gene expression was analyzed in placebo and CNI-1493 (5 mg/kg) treated animals at 1, 3, 6 and 24 hours after operation; n=5-7 each group. […] Total RNA was analyzed in ME specimen that was prepared as described before (Wehner S, Behrendt F F, Lyutenski B N et al. Inhibition of macrophage function prevents intestinal inflammation and postoperative ileus in rodents. Gut 2007; 56:176-185). […] Expression of mRNA was quantified in triplicate by a RT-PCR with gene expression assays for […] (MCP-1; #Mm00441242_m1), CCL3 (MIP-1α #Mm00441258_m1), IL-6 (Assay ID #Mm00446190_ml), TNF-α (#Mm00443258_m1) and ICAM-1 (#Mm00516023_m1). […] Data quantification was performed by the ΔΔCT method. […]

IL-6 mRNA = assay: Proinflammatory gene expression in ME, real-time RT-PCR: IL-6; format: in vivo, mice; conditions: 5 mg/kg i.v. preoperative; 6 hours after IM; vs placebo IM
Description: as §1, with “cavity.” for “cavity. The entire small bowel was eventuated and manipulated with standardized moderate intensity using two moist cotton applicators as described previously. After IM, the laparotomy was closed by one layer of continuous suture, except when probe sampling was conducted within 20 minutes after surgery.”
as §2

swine = assay: Gastrointestinal transit in swine (radio-opaque globes, geometric center) after IM; format: in vivo; conditions: 24 h after operation, mean+/−SEM
Experimental: Swine were fed with CPSI 2364 or placebo 14 hours and three hours before operation. In the iv group, CPSI 2364 was applied once two hours before operation. All animals were fed (non fasted). After premedication animals were intubated and a central venous catheter was applied. A laparotomy was performed under sterile conditions. The whole small bowel was eventrated and manipulated twice from duodenum to cecum between two fingers. In the sham group, a laparotomy was performed without intestinal manipulation. At the end of the operation, 15 radio-opaque globes were placed in the proximal small bowel. The abdominal wall was closed and swine were brought to an intensive care unit.
Swine underwent intestinal manipulation (IM) or laparotomy without IM (Sham). CPSI-2364 (1 mg/kg) or placebo (mannitol 2.5%) were administered orally (p.o.) twice at 14 hours and 3 hours before operation or intravenously (i.v.) once at 2 hours before operation. At the end of the operation, 15 radio-opaque globes were placed in the proximal small bowel. Twenty-four hours after operation animals were sacrificed and the radio-opaque globes were detected by x-rays radiography and the distribution along the gastrointestinal tract was calculated as the geometric center **p<0.001 vs. indicated probes by 1-way ANOVA followed by Bonferroni's post test. […]

| SMILES | JNK/SAPK phosphorylation (JNK/SAPK) | reduction of MIP-1α expression (MIP-1α mRNA; 3 hours after IM) [%] | reduction of MIP-1α expression (MIP-1α mRNA; 6 hours after IM) [%] | IL-6 expression diminished (IL-6 mRNA) | gastrointestinal transit, geometric center (GC) (swine; 1 mg/kg i.v. once at 2 hours before operation) | gastrointestinal transit, geometric center (GC) (swine; 1 mg/kg p.o. twice at 14 hours and 3 hours before operation) |
| --- | --- | --- | --- | --- | --- | --- |
| C/C(=N\N=C(N)N)c1cc(NC(=O)CCCCCCCCC(=O)Nc2cc(/C(C)=N/N=C(N)N)cc(/C(C)=N/N=C(N)N)c2)cc(/C(C)=N/N=C(N)N)c1.Cl.Cl.Cl.Cl [CNI-1493] | not affected | 50 | 39 | more than 55% |  |  |
| C/C(=N\N=C(N)N)c1cc(NC(=O)CCCCCCCCC(=O)Nc2cc(/C(C)=N/N=C(N)N)cc(/C(C)=N/N=C(N)N)c2)cc(/C(C)=N/N=C(N)N)c1.CS(=O)(=O)O.CS(=O)(=O)O.CS(=O)(=O)O.CS(=O)(=O)O [CPSI-2364] |  |  |  |  | 14.01+/−0.44 | 13.00+/−0.27 |
